The values that follow come from patent publication US11447477B2, “Indoleamine-2,3-dioxygenase inhibitor, the preparative method and the use thereof” (HINOVA PHARMACEUTICALS INC., priority 2017, dated 2022).

For data set [1], the target named is human IDO1 protease (Homo sapiens (Human), UniProt P14902). The data set can be described thus: Inhibitory activity against human IDO1 protease (absorbance test method). It counts as biochemical. The settings on record: IDO1 (His-tag) enzyme, absorbance at 320 nm. The procedure:
1) Experimental Materials and Apparatus: • IDO1 (His-tag) enzyme (BPS Bioscience) • L-tryptophan (Sigma) • Methylene blue (Sigma) • Catalase originated from the liver of cattle (Sigma) • L-ascorbic acid (Sigma) • Glycerol (Sigma) • Potassium dihydrogen phosphate solution (Sigma) • Tween 20 (Sigma) • Automatic sampling platform Liquid handler (Bravo & Echo) • Microplate Reader SpectraMax M5e (Molecular Devices)
2) Test Method of Compounds: The Compounds are Determined by Absorbance Test Method:
The tested compounds and the reference compounds are dissolved in DMSO to prepare a high concentration of storage solution. The stock solution of reference compound was diluted with DMSO to prepare a 100× solution. In the first column of the working plate, 8 μL above tested compounds and 8 μL 100× reference compound were respectively added as the highest concentration, and then the highest concentrations were subjected to three times dilution to obtain 11 concentrations and prepare 100× solution. 0.5 μL solution was transferred from the above plate to the detection plate. […]. For HPE and ZPE control wells, 0.5 μL 100% DMSO was added.
25 μL 2×IDO1 (His-tag) enzyme solution (containing L-ascorbic acid, methylene blue, and catalase) was added to each well. 25 μL reaction solution without IDO1 (His-tag) enzyme was added into HPE control well. The test plate was centrifugated at 1000 rpm for 1 minute to mix well. Then, the test plate was incubated at room temperature for 30 minutes. 25 μL above 2× substrate (L-tryptophan) solution was added to each well. The test plate was centrifugated at 1000 rpm for 1 minute to mix well. The detection plate was placed on ELISA (SpectraMax M5e), the temperature was set at 25° C., and the absorbance (OD value) was measured at 320 nm every 10 minutes till 60 minutes.
Calculating the increase ratio of absorbance: the slope of the absorbance increase curve from 10 min to 60 min is derived from SpectralMax M5e. The inhibition coefficient of compound was calculated: the inhibition ratio of compound=(the absorbance increase ratio of ZPE control well−the absorbance increase ratio of compound well)/(the absorbance increase ratio of ZPE control well−the absorbance increase ratio of HPE control well)×100. Results was analyzed by Prism 5.0.

Data set [2] deals with IDO protease in HeLa cells (Homo sapiens (Human), UniProt P14902). The data set can be described thus: Inhibition of IDO protease in HeLa cells (IFNγ-induced, Trp/Kyn by RapidFire/MS). It counts as cell-based. The following applies: for IC50: HeLa cells, 25 ng/ml IFNγ, 48 hours. The source says: 1) Experimental Materials and Apparatus • HeLa cells (ATCC, Cat. No. CCL-2) • γ interferon IFNγ (R&D, Cat. No. 285-IF-100) • DMEM High Glucose media (Invitrogen, Cat. No. 11965-084) • Fetal bovine serum FBS (Invitrogen, Cat. No. 10100-147) • Trypsin-EDTA (0.050%)(Invitrogen, Cat. No. 25300-054) • Phosphate buffer solution PBS, pH 7.4 (Invitrogen, Cat. No. 10010023) • Penicillin-Streptomycin (P/S) (Invitrogen, Cat. No. 15070063) • L-tryptophan (Trp) (Sigma, Cat. No. T8941) • L-kynurenine (Kyn) (Sigma, Cat. No. K8625) • N′-diformylkynurenine (NFK) (J&K, Cat. No. F700490) • 3-Nitro-L-tyrosine (J&K, Cat. No. N0905) • Acetonitrile (Sigma, Cat. No. 34851) • Dimethylsulfoxide DMSO (Sigma, Cat. No. D8418) • Inhibitor INCB024360 (Selleckchem, Cat. No. S7910) • Inhibitor INCB024360-analog (MedKoo, Cat. No. 205493) • Inhibitor NLG919 (Selleckchem, Cat. No. S7111) • 96 well transparent flat bottom polystyrene cell culture plate (Corning, Cat #3599) • 96 well V-bottom polypropylene plate (PE, Cat #6008290) • 96 well U-shaped bottom polypropylene plate (PE, Cat. No. 6008390) • Multidrop™ distribution box with small metal tip (Thermo, Cat. No. 24073295) • Multidrop™ distribution box of standard tube with metal tip (Thermo, Cat. No. 24072670) • Automatic filling platform (Agilent) • Multidrop™ Combi automatic liquid separator (Thermo) • Centrifugal machine (Eppendorf) • Cell incubator (Thermo) • Cell counter (Thermo) • RapidFire Mass system (Agilent)
Chain of IDO protease in HeLa cells (P14902 whole entry): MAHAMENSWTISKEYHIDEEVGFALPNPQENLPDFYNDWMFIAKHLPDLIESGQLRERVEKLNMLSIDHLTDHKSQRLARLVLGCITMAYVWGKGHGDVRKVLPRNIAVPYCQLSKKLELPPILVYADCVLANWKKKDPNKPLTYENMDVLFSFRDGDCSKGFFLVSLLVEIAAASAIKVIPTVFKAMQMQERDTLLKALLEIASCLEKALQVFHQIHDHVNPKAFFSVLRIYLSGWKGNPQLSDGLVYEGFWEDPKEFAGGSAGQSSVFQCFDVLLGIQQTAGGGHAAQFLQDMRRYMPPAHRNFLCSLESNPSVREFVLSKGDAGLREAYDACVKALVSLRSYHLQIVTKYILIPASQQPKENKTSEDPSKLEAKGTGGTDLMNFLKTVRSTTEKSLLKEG
2) Experimental Method for Compound Assay
The compound (compounds 4, 8, 9, 78, 91 of the present invention) was dissolved in DMSO to prepare a solution with a concentration of 3 mM, and then 15 μL of the compound solution is added to a 96 well plate, and serially diluted by 3 times dilution to obtain 10 points. 2 μL compound solution or DMSO (for HPE/ZPE) was transferred to a new 96 well plate. HeLa cell suspension was seeded into the cell culture plate with a density of 1×10^4 cells/well. For HPE control well, the cell culture medium for detection was DMEM, including 10% FBS, 1% P/S, and 122 μM Trp; for ZPE control well and the compound wells, the cell culture medium was DMEM, including 10% FBS, 1% P/S, […], and 25 ng/ml IFNγ. 192 μL detection medium prepared as above was added to a 96 well plate. 78 μL DMEM was added to the compound plate and thoroughly mixed, and then 8 μL compound solution diluted with DMEM was transferred to the 96 well plate containing the detection medium. The cell culture plate was taken out, and the cell culture medium was discarded, then 100 μL compound solution mentioned above was transferred to the cell culture plate. The cell culture plate was moved into the cell incubator and kept for 48 hours. When detected, the cell culture plate was taken out, and 50 μL supernatant was transferred to a new 96 well plate, to which was added 200 μL acetonitrile, and the plate was mixed well. The plate was centrifugated at 4° C. for 20 minutes (rotatory speed being 4000 rpm), and 40 μL supernatant was transferred to another 96 well plate, to which was further added 360 μL deionized water containing […] internal reference (3-nitro-L-tyrosine). The plate was fully mixed, and then the sample was detected by RapidFire/MS system. The standards of L-tryptophan (Trp) and L-kynurenine (Kyn) were dissolved in water to obtain a concentration of 10 mM, and the standard curve was performed by three times dilution. The inhibitory ratio was calculated by obtained data, and the IC50 curve was completed by processing the resultant data with Graphpad Prism5 software.

Data set [3] in a line: Pharmacokinetics in mice. It is filed as in vivo, ICR mice. The following applies: for Cmax: read-out: Blood concentration Cmax; for AUC: read-out: Curve area AUC; for Tmax: read-out: Peak time tmax; for MRT inf: read-out: Retention time MRTinf. From the text:
1) Experimental Materials and Apparatus: • LC-20AD HPLC system (SHIMADZU, Japan) • API4000 Triple quadrupole mass spectrometer (Applied Biosystem, USA) • PhenixWinnolin Pharmacokinetic software (Version 6.3, Certara, USA) • High speed freezing centrifuge (Thermo Fisher Scientific) • Analytical balance (SECURA225D-1CN) • Experimental animals: ICR mice (Chengdu Dashuo Experimental Animal Co., Ltd) • DMA (Sigma) • CMC-Na (Chengdu Kelong Chemical Co., Ltd) • Heparin (Chengdu Kelong Chemical Co., Ltd)
2) Experimental Methods and Results
A solution at concentration of 0.5 mg/mL was prepared. 0.2 ml of the final solution prepared was taken out and stored at −20° C. for concentration determination. Nine healthy adult ICR mice (20-30 g) were fasted overnight (free drinking water) and then administrated at a dosage of 0.2 mL/10 g by gavage. Prior to administration and 0.5, 1, 2, 4, 6, 8, 12, 24 h after administration, 0.1 mL blood was collected from the posterior orbital venous plexus and centrifuged at 4° C. for 5 min to separate the plasma, which was preserved at −20° C. for testing. Then the concentrations of tested compounds in the plasma were determined by LC/MS/MS.

Setting [4] is: ICR, mouse, 10 mg/kg, PO, 10 mpk, plasma.

Chain of human IDO1 protease (P14902 whole entry): as above

The IC50 is the concentration that inhibits the measured activity by half. Read a low IC50 as higher potency. One may read the AUC as concentration integrated over time. Usually Tmax stands for the time from dosing to the highest level. `NS(=O)(=O)N1CC(CNc2nonc2/C(=N/O)Nc2ccc(F)c(Br)c2)C1` [Compound 4, N-(3-Bromo-4-fluorophenyl)-N′-hydroxyl-4-(((1-sulfamoylazetidin-3-yl)methyl)amino)-1,2,5-oxadiazole-3-formamidine]: half-maximal inhibition in data set [1] (IC50) required 55 nM. For the same compound, in data set [2], the “inhibitory activities on IDO protease in HeLa cells (in words)” value was “excellent” and the half-maximal inhibitory concentration (IC50) amounted to 5 nM. Besides, the “half-life time compared with the reference compound INCB-24360 (in words)” value in data set [3] is “longer half-life time”. Further, in data set [3] (setting [4]), the Cmax stood at 1080 ng/mL, the AUC came to 1760 ng·h/mL, the time to peak (Tmax) stood at 0.5 h and the MRT inf was found to be 3.28 h. The half-life in data set [3] (ICR, mouse, 10 mg/kg, PO, 10 mpk, plasma, read-out: Half time t1/2 (converted)) was 5.06 h.
Turning to `NS(=O)(=O)N1CC[C@@H](CNc2nonc2/C(=N/O)Nc2ccc(F)c(Br)c2)C1` [Compound 8, (S)—N-(3-Bromo-4-fluorophenyl)-N′-hydroxyl-4-(((1-sulfamoylpyrrolidine-3-yl)methyl)amino)-1,2,5-oxadiazole-3-formamidine], the IC50 stood at 112 nM in data set [1] and 17 nM in data set [2].
In the case of `NS(=O)(=O)N1CC[C@H](CNc2nonc2/C(=N/O)Nc2ccc(F)c(Br)c2)C1` [Compound 9, (R)—N-(3-bromo-4-fluorophenyl)-N′-hydroxyl-4-(((1-sulfamoylpyrrolidine-3-yl)methyl)amino)-1,2,5-oxadiazole-3-formamidine], the figures for the concentration for half-maximal inhibition (IC50) in data set [1] and in data set [2] were 84 nM and 15 nM, respectively.
On to `CNS(=O)(=O)N1CC(CNc2nonc2C(=NO)Nc2ccc(F)c(Br)c2)C1` [Compound 78], for which the half-inhibitory concentration (IC50) in data set [1] worked out at 69 nM; in data set [2] it was 13 nM.
In data set [2], `NS(=O)(=O)N1CC(F)(CNc2nonc2C(=NO)Nc2ccc(F)c(Br)c2)C1` [Compound 91, (Z)—N-(3-bromo-4-fluorophenyl)-4-(3-fluoro-1-sulfadiazin-3-yl)methyl)amino)-N′-hydroxyl 1,2,5-oxadiazol-3-carboxyoximide] came in with a 50% inhibitory concentration (IC50) of 74 nM.
Consider `NS(=O)(=O)N1CC(F)(CNc2nonc2/C(=N/O)Nc2ccc(F)c(Br)c2)C1` [Compound 91], for which it took 128 nM to reach half-maximal inhibition in data set [1] (IC50). The “inhibitory activities on IDO protease in HeLa cells (in words)” value in data set [2] is given as “excellent”.
In data set [2], `NS(=O)(=O)N1CC(CCNc2nonc2/C(=N/O)Nc2ccc(F)c(Br)c2)C1` [Compound 132, (Z)—N-(3-bromo-4-fluorophenyl)-N′-hydroxyl-4-((2-(1-sulfamoylazetidin-3-yl)ethyl)amino)-1,2,5-oxadiazol-3-formamidine] returned a half-inhibitory concentration (IC50) of 10 nM.
In turn, `NC(=O)N1CC(CNc2nonc2/C(=N/O)Nc2ccc(F)c(Br)c2)C1` [Compound 140, (Z)—N-(3-bromo-4-fluorophenyl)-N′-hydroxyl-4-(((1-carbamoylazetidin)-3-methyl)amino)-1,2,5-oxadiazol-3-formamidine] showed a half-inhibitory concentration (IC50) in data set [2] of 75 nM. Against the preceding compound, the IC50 is about 7.5-fold higher.
Still for that read-out and setting: then `NS(=O)(=O)N1CC(CSc2nonc2/C(=N/O)Nc2ccc(F)c(Br)c2)C1` [Compound 148], with 14 nM; and `NS(=O)(=O)N1CC(CCSc2nonc2/C(=N/O)Nc2ccc(F)c(Br)c2)C1` [Compound 149, (Z)—N-(3-bromo-4-fluorophenyl)-N′-hydroxyl-4-((2-(1-sulfamoylazetidin-3-yl)ethyl)thio)-1,2,5-oxadiazol-3-formamidine], with 18 nM.
As to `[2H]C([2H])(Nc1nonc1/C(=N/O)Nc1ccc(F)c(Br)c1)C1CN(S(N)(=O)=O)C1` [Compound 150, (Z)—N-(3-bromo-4-fluorophenyl)-N′-hydroxyl-4-(((1-sulfadiazin-3-yl)methyl-D2)amino)-1,2,5-oxadiazol-3-carboxyoximide], the IC50 in data set [1] came out at 81 nM; in data set [2] it was 9 nM.
Take `NS(=O)(=O)NCCNc1nonc1C(=NO)Nc1ccc(F)c(Br)c1` [INCB24360, reference compound]: in data set [3] (setting [4]), the Cmax amounted to 992 ng/mL, the AUC amounted to 1810 ng·h/mL, the time of peak concentration (Tmax) was determined as 0.5 h and the MRT inf was 2.03 h.
